Assay results as given in patent US10774071B2, “PD-1/PD-L1 inhibitors” (Gilead Sciences, Inc., priority 2018, dated 2020).

Columns and labels:
[1] = biological target: PD-1/PD-L1 (Homo sapiens (Human), UniProt Q9NZQ7); assay: PD-1/PD-L1 biochemical protein-protein interaction assay (ALPHA); assay type: binding; conditions: 0.3 nM His tagged PD-L1, 2.5 nM biotinylated Fc-PD-1, Table 3B, read-out: IC50 PD-L1-PD1
[2] = biological target: PD-L1 (Homo sapiens (Human), UniProt Q9NZQ7); assay: PD-L1/PD-L1 dimerization biochemical protein-protein interaction assay (ALPHA); assay type: binding; conditions: 0.5 nM His tagged PD-L1 and 0.5 nM FLAG tagged PD-L1, Table 4B, read-out: AC50 PDL1 Dimer 1 nM
Chain of PD-L1 (Q9NZQ7 19-238): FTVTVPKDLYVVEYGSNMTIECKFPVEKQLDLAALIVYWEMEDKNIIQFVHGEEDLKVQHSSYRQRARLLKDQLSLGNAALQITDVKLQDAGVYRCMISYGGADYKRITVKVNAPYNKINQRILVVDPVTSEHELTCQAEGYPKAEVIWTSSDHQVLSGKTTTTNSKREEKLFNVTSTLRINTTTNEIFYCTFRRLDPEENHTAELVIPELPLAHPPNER
Chain of PD-L1 (Q9NZQ7 19-238): as above

Chain of PD-1/PD-L1 (Q9NZQ7 19-238): as above

Row | Structure (SMILES) | IC50 [1] [nM] | AC50 [2] [nM]
1 | COc1cc(-c2cccc(-c3cccc4c3CC[C@@H]4Oc3nc(OC)c(CNC4(C(=O)O)CC4)cc3C(F)(F)F)c2Cl)ccc1CNC[C@@H]1CCC(=O)N1 [B-122] | 0.064 | 2.65
2 | COc1nc(O[C@H]2CCc3c(-c4cccc(-c5cc(C)c(CN6CC(C(=O)O)C7(CC7)C6)c(OC)n5)c4Cl)cccc32)c(Cl)cc1CNC[C@@H]1CCC(=O)N1 (stereo partly drawn) [B-123] | 0.064 | 133
3 | COc1nc(O[C@H]2CCc3c(-c4cccc(-c5cc(C)c(CN6C[C@@H]7[C@H](C6)[C@H]7C(=O)O)c(OC)n5)c4Cl)cccc32)c(Cl)cc1CNC[C@@H]1CCC(=O)N1 [B-124] | 0.084 | 78.5
4 | COc1nc(O[C@H]2CCc3c(-c4cccc(-c5ccc(CNC[C@@H]6CCC(=O)N6)c(OCC#N)n5)c4Cl)cccc32)c(C(F)(F)F)cc1CNC1(C(=O)O)CC1 [B-125] | 0.064 | 6.79
5 | COc1nc(O[C@H]2CCc3c(-c4cccc(-c5ccc(CNC[C@@H]6CCC(=O)N6)c(OCC#N)n5)c4Cl)cccc32)c(C(F)(F)F)cc1CN1CC2(C(=O)O)CCC1CC2 [B-126] | 0.064 | 3.35
6 | COc1nc(O[C@H]2CCc3c(-c4cccc(-c5ccc(CNC[C@@H]6CCC(=O)N6)c(OCC#N)n5)c4Cl)cccc32)c(C(F)(F)F)cc1CN1CC[C@@H](C(=O)O)C1 [B-127] | 0.064 | 5.46
7 | COc1cc(-c2cccc(-c3cccc4c3CC[C@@H]4Oc3nc(OC)c(CNC4(C(=O)O)CC4)cc3Cl)c2Cl)cc(F)c1CNC[C@@H]1CCC(=O)N1 [B-128] | 0.064 | 13.5
8 | COc1cc(-c2cccc(-c3cccc4c3CC[C@@H]4Oc3nc(OC)c(CN4CC5(C(=O)O)CCC4CC5)cc3Cl)c2Cl)cc(F)c1CNC[C@@H]1CCC(=O)N1 [B-129] | 0.064 | 16.5
9 | COc1cc(-c2cccc(-c3cccc4c3CC[C@@H]4Oc3nc(OC)c(CN4CC(C(=O)O)C4)cc3Cl)c2Cl)cc(F)c1CNC[C@@H]1CCC(=O)N1 [B-130] | 0.064 | 4.87
10 | COc1cc(-c2cccc(-c3cccc4c3CC[C@@H]4Oc3nc(OC)c(CN4CC[C@@H](C(=O)O)C4)cc3Cl)c2Cl)cc(F)c1CNC[C@@H]1CCC(=O)N1 [B-131] | 0.064 | 10.5
11 | COc1nc(O[C@H]2CCc3c(-c4cccc(-c5cc(C)c(CN6C[C@@H]7C[C@]7(C(=O)O)C6)c(OC)n5)c4Cl)cccc32)c(Cl)cc1CNC[C@@H]1CCC(=O)N1 [B-132] | 0.266 | 301
12 | COc1nc(O[C@H]2CCc3c(-c4cccc(-c5cc(C)c(CN6CC[C@@H](C(=O)O)C6)c(OC)n5)c4Cl)cccc32)c(Cl)cc1CNC[C@@H]1CCC(=O)N1 [B-133] | 0.064 | 99.1
13 | COc1nc(-c2cccc(-c3cccc4c3CC[C@@H]4Oc3nc(OC)c(CN4CC5CCC4(C(=O)O)CC5)cc3C(F)(F)F)c2Cl)ccc1CNC[C@@H]1CCC(=O)N1 [B-134] | 0.064 | 0.727
14 | COc1nc(-c2cccc(-c3cccc4c3CC[C@@H]4Oc3nc(OC)c(CN4CCCC[C@@]4(C)C(=O)O)cc3C(F)(F)F)c2Cl)ccc1CNC[C@@H]1CCC(=O)N1 [B-135] | 0.064 | 2.76
15 | COc1nc(-c2cccc(-c3cccc4c3CC[C@@H]4Oc3nc(OC)c(CN4[C@@H]5C[C@@H]5C[C@H]4C(=O)O)cc3C(F)(F)F)c2Cl)ccc1CNC[C@@H]1CCC(=O)N1 [B-136] | 0.064 | 11
16 | COc1nc(-c2cccc(-c3cccc4c3CC[C@@H]4Oc3nc(OC)c(CN4[C@H](C(=O)O)C[C@@H]5C[C@@H]54)cc3C(F)(F)F)c2Cl)ccc1CNC[C@@H]1CCC(=O)N1 [B-137] | 0.064 | 6.19
17 | COc1nc(-c2cccc(-c3cccc4c3CC[C@@H]4Oc3nc(OC)c(CN4C[C@@H]5C[C@@H]5[C@H]4C(=O)O)cc3C(F)(F)F)c2Cl)ccc1CNC[C@@H]1CCC(=O)N1 [B-138] | 0.064 | 11.6
18 | COc1nc(-c2cccc(-c3cccc4c3CC[C@@H]4Oc3nc(OC)c(CNC4(C(=O)O)CC5CCC4C5)cc3Cl)c2Cl)ccc1CNC[C@@H]1CCC(=O)N1 (stereo partly drawn) [B-139] | 0.064 | 10.2
19 | COc1cc(-c2cccc(-c3cccc4c3CC[C@@H]4Oc3nc(OC)c(CN4CC5(C(=O)O)CCC4CC5)cc3C(F)(F)F)c2Cl)ccc1CNC[C@@H]1CCC(=O)N1 [B-140] | 0.064 | 2.28
20 | COc1cc(-c2cccc(-c3cccc4c3CC[C@@H]4Oc3nc(OC)c(CN4CC(C)(C(=O)O)C4)cc3C(F)(F)F)c2Cl)ccc1CNC[C@@H]1CCC(=O)N1 [B-141] | 0.064 | 5.83
21 | COc1nc(O[C@H]2CCc3c(-c4cccc(-c5cc(F)c(CNC[C@@H]6CCC(=O)N6)c(OC)n5)c4Cl)cccc32)c(Cl)cc1CN1CC(C(=O)O)C1 [B-142] | 0.064 | 38.9
22 | COc1nc(O[C@H]2CCc3c(-c4cccc(-c5ccc(CNC[C@@H]6CCC(=O)N6)c(OC)c5F)c4Cl)cccc32)c(Cl)cc1CN1CC[C@@H](C(=O)O)C1 [B-143] | 0.064 | 42.1
23 | COc1nc(-c2cccc(-c3cccc4c3CC[C@@H]4Oc3nc(OC)c(CN4CC5(CC5)C[C@H]4C(=O)O)cc3C(F)(F)F)c2Cl)ccc1CNC[C@@H]1CCC(=O)N1 [B-144] | 0.064 | 8.98

Row | Structure (SMILES) | IC50 [1] [nM] | AC50 [2] [nM]
24 | COc1nc(-c2cccc(-c3cccc4c3CC[C@@H]4Oc3nc(OC)c(CN4CC5CC4(C(=O)O)C5)cc3C(F)(F)F)c2Cl)ccc1CNC[C@@H]1CCC(=O)N1 [B-145] | 0.064 | 5.12
25 | COc1nc(-c2cccc(-c3cccc4c3CC[C@@H]4Oc3nc4c(nc3Cl)c(CN3CC5(CNC(=O)C5)C3)nn4C)c2Cl)ccc1CNC[C@@H]1CCC(=O)N1 [B-146] | 0.41 | 297
26 | COc1nc(-c2cccc(-c3cccc4c3CC[C@@H]4Oc3nc4c(nc3Cl)c(CNC[C@@H]3CCC(=O)N3)nn4C)c2Cl)ccc1CNC[C@@H]1CCC(=O)N1 [B-147] | 0.351 | 178
27 | COc1nc(-c2cccc(-c3cccc4c3CC[C@@H]4Oc3nc(OC)c(CN4CC(C(=O)O)C4)nc3C)c2Cl)ccc1CNC[C@@H]1CCC(=O)N1 [B-148] | 0.064 | 43.2
28 | COc1nc(-c2cccc(-c3cccc4c3CC[C@@H]4Oc3nc(OC)c(CN4CC[C@@H](C(=O)O)C4)nc3C)c2Cl)ccc1CNC[C@@H]1CCC(=O)N1 [B-150] | 0.064 | 65.1
29 | COc1nc(-c2cccc(-c3cccc4c3CC[C@@H]4Oc3nc(OC)c(CNC[C@@H]4CCC(=O)N4)nc3C)c2Cl)ccc1CNC[C@@H]1CCC(=O)N1 [B-151] | 0.072 | 66.2
30 | COc1nc(-c2cccc(-c3cccc4c3CC[C@@H]4Oc3nc(OC)c(CN4CC(C(=O)O)C4)nc3Cl)c2Cl)ccc1CNC[C@@H]1CCC(=O)N1 [B-152] | 0.064 | 12.7
31 | COc1nc(-c2cccc(-c3cccc4c3CC[C@@H]4Oc3nc(OC)c(CN4CC5(C(=O)O)CCC4CC5)nc3Cl)c2Cl)ccc1CNC[C@@H]1CCC(=O)N1 [B-153] | 0.064 | 19
32 | COc1nc(-c2cccc(-c3cccc4c3CC[C@@H]4Oc3nc(OC)c(CN4CC[C@@H](C(=O)O)C4)nc3Cl)c2Cl)ccc1CNC[C@@H]1CCC(=O)N1 [B-154] | 0.064 | 31.5
33 | COc1nc(-c2cccc(-c3cccc4c3CC[C@@H]4Oc3nc(OC)c(CNC[C@@H]4CCC(=O)N4)nc3Cl)c2Cl)ccc1CNC[C@@H]1CCC(=O)N1 [B-155] | 0.22 | 102
34 | COc1nc(-c2cccc(-c3cccc4c3CC[C@@H]4Oc3cnc(CN4CC[C@@H](C(=O)O)C4)c(OC)n3)c2Cl)ccc1CNC[C@@H]1CCC(=O)N1 [B-156] | 0.076 | 324
35 | COC(=O)[C@@H]1CCN(Cc2ncc(O[C@H]3CCc4c(-c5cccc(-c6ccc(CNC[C@@H]7CCC(=O)N7)c(OC)n6)c5Cl)cccc43)nc2OC)C1 [B-157] | 0.195 | 1420
36 | COc1nc(-c2cccc(-c3cccc4c3CC[C@@H]4Oc3nc(OC)c(CN4CCC(C(=O)N=S(C)(N)=O)CC4)cc3Cl)c2Cl)ccc1CNC[C@@H]1CCC(=O)N1 (stereo partly drawn) [B-158] | 0.064 | 26.9
37 | COc1nc(-c2cccc(-c3cccc4c3CC[C@@H]4Oc3nc(OC)c(CN4CC(C(=O)N=S(C)(=O)NC(C)=O)C4)cc3Cl)c2Cl)ccc1CNC[C@@H]1CCC(=O)N1 (stereo partly drawn) [B-159] | 0.064 | 24.9
38 | COc1nc(-c2cccc(-c3cccc4c3CC[C@@H]4Oc3nc(OC)c(CN4CC[C@@H](C(=O)N=S(C)(=O)N(CC(F)(F)F)CC(F)(F)F)C4)cc3Cl)c2Cl)ccc1CNC[C@@H]1CCC(=O)N1 (stereo partly drawn) [B-160] | 0.54 | 309
39 | COc1nc(-c2cccc(-c3cccc4c3CC[C@@H]4Oc3nc(OC)c(CN4CC[C@@H](C(=O)N=S(C)(=O)NCC(F)(F)F)C4)cc3Cl)c2Cl)ccc1CNC[C@@H]1CCC(=O)N1 (stereo partly drawn) [B-161] | 0.073 | 41.2
40 | COc1nc(-c2cccc(-c3cccc4c3CC[C@@H]4Oc3nc(OC)c(CN4CC[C@@H](C(=O)N=S(C)(=O)NC(=O)C(F)(F)F)C4)cc3Cl)c2Cl)ccc1CNC[C@@H]1CCC(=O)N1 (stereo partly drawn) [B-162] | 0.082 | 134
41 | COc1nc(-c2cccc(-c3cccc4c3CC[C@@H]4Oc3nc(OC)c(CN4CC[C@@H](C(=O)N=S(C)(=O)NC(C)=O)C4)cc3Cl)c2Cl)ccc1CNC[C@@H]1CCC(=O)N1 (stereo partly drawn) [B-163] | 0.064 | 39.1
42 | COc1nc(-c2cccc(-c3cccc4c3CC[C@@H]4Oc3nc(OC)c(CN4CC[C@@H](C(=O)N=S(C)(N)=O)C4)cc3Cl)c2Cl)ccc1CNC[C@@H]1CCC(=O)N1 (stereo partly drawn) [B-164] | 0.27 | 66.9
43 | COc1cc(O[C@H]2CCc3c(-c4cccc(-c5ccc(CNC[C@@H]6CCC(=O)N6)c(OC)n5)c4Cl)cccc32)c(C(F)(F)F)cc1CN1CC[C@H](C(=O)O)C1 [B-165] | 0.064 | 24.6
44 | COc1cc(O[C@H]2CCc3c(-c4cccc(-c5ccc(CNC[C@@H]6CCC(=O)N6)c(OC)n5)c4Cl)cccc32)c(Cl)cc1CN1CC2(C(=O)O)CCC1CC2 [B-166] | 0.064 | 43.7
45 | COc1cc(O[C@H]2CCc3c(-c4cccc(-c5ccc(CNC[C@@H]6CCC(=O)N6)c(OC)n5)c4Cl)cccc32)c(Cl)cc1CN1CC[C@H](C(=O)O)C1 [B-167] | 0.064 | 51.6
